Reference: ChEMBL document CHEMBL1154915, “Selection of inhibitory peptides for Aurora-A kinase from a phage-displayed library of helix-loop-helix peptides” (Bioorg Med Chem Lett, 2010)
Activity calls are given as the source filed them.

Target: T1, Aurora kinase A (Homo sapiens) (UniProt O14965)
T1 sequence (whole entry): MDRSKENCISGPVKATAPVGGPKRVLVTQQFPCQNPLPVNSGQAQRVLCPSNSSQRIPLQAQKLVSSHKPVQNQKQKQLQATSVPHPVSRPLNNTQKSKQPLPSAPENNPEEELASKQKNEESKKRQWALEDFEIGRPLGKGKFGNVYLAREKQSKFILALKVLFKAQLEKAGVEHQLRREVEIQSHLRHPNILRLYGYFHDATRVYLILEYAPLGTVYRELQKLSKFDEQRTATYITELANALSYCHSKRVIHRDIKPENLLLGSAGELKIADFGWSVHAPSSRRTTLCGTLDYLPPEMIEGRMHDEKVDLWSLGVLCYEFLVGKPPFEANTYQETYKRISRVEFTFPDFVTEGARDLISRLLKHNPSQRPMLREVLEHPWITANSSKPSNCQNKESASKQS
Test: Inhibition of Aurora A at 100 uM by IMAP fluorescence polarization assay

| Substance | inhibition |
| --- | --- |
| H-AELAALEAELAALEGARHFYVQSVGKLAALKAKLAALKA-OH | inactive |
| H-AELAALEAELAALEGERRLIIFNSGKLAALKAKLAALKA-OH | 20% |
| H-AELAALEAELAALEGRRVVVSFAWDGKLAALKAKLAALKA-OH | 35% |
| H-GRRVVVAFAWD-NH2 | inactive |

Next, values leading:

| inhibition | Substance |
| --- | --- |
| inactive | H-AELAALEAELAALEGGGGGGGKLAALKAKLAALKAY-NH2 |
| 17% | H-AELAALEAELAALEGSSERKLVLLGKLAALKAKLAALKA-OH |
| inactive | H-AELAALEAELAALEGVGEFSVSLLGKLAALKAKLAALKA-OH |

Target: T1, Aurora kinase A (Homo sapiens)
Test: Inhibition of Aurora A at 10 uM by IMAP fluorescence polarization assay

| inhibition | Substance |
| --- | --- |
| 42% | H-AELAALEAELAALEGRRVVVAFAWDKLAALKAKLAALKA-NH2 |

Target: T1, Aurora kinase A (Homo sapiens)
Test: Binding affinity to GST-tagged Aurora A after 1 hr by ELISA

| Substance | Activity |
| --- | --- |
| H-AELAALEAELAALEGARHFYVQSVGKLAALKAKLAALKA-OH | Active |
| H-AELAALEAELAALEGERRLIIFNSGKLAALKAKLAALKA-OH | Active |
| H-AELAALEAELAALEGLEGKSMGFIGKLAALKAKLAALKA-OH | Active |
| H-AELAALEAELAALEGLQQVLSYIFGKLAALKAKLAALKA-OH | Active |
| H-AELAALEAELAALEGLQTMWHSLWGKLAALKAKLAALKA-OH | Active |
| H-AELAALEAELAALEGNISRFWVLAGKLAALKAKLAALKA-OH | Active |
| H-AELAALEAELAALEGQGRADMSILGKLAALKAKLAALKA-OH | Active |
| H-AELAALEAELAALEGQLWMLNTILGKLAALKAKLAALKA-OH | Active |
| H-AELAALEAELAALEGQVGSTRLLSGKLAALKAKLAALKA-OH | Active |
| H-AELAALEAELAALEGRRAVWPFGFGKLAALKAKLAALKA-OH | Active |
| H-AELAALEAELAALEGRRVVVSFAWDGKLAALKAKLAALKA-OH | Active |
| H-AELAALEAELAALEGRSEDPVCSWGKLAALKAKLAALKA-OH | Active |
| H-AELAALEAELAALEGSGAWMGSLLGKLAALKAKLAALKA-OH | Active |
| H-AELAALEAELAALEGSRRMWNAYEGKLAALKAKLAALKA-OH | Active |
| H-AELAALEAELAALEGSVAQLGLLLGKLAALKAKLAALKA-OH | Active |
| H-AELAALEAELAALEGWRRRLNNWWGKLAALKAKLAALKA-OH | Active |
| H-AELAALEAELAALEGWVGMREVWRGKLAALKAKLAALKA-OH | Active |
| H-AELAALEAELAALEGYEGQFMWLIGKLAALKAKLAALKA-OH | Active |
| H-AELAALEAELAAPEGSQERKGVLAGKLAALKAKLAALKA-OH | Active |

Results, then the substance that gave them:

| Activity | Substance |
| --- | --- |
| inactive | H-AELAALEAELAALEGGGGGGGKLAALKAKLAALKAY-NH2 |
| Active | H-AELAALEAELAALEGLVMGVKAFLGKLAALKAKLAALKA-OH |
| Active | H-AELAALEAELAALEGMRDWLIIGFGKLAALKAKLAALKA-OH |
| Active | H-AELAALEAELAALEGRDQVMWFLHGKLAALKAKLAALKA-OH |
| Active | H-AELAALEAELAALEGSGMLAHFSWGKLAALKAKLAALKA-OH |
| Active | H-AELAALEAELAALEGSQDNARSLWGKLAALKAKLAALKA-OH |
| Active | H-AELAALEAELAALEGSRNQMYWLYGKLAALKAKLAALKA-OH |
| Active | H-AELAALEAELAALEGSSERKLVLLGKLAALKAKLAALKA-OH |
| Active | H-AELAALEAELAALEGVGEFSVSLLGKLAALKAKLAALKA-OH |
| Active | H-AELAALEAELAALEGWGGLMGWISGKLAALKAKLAALKA-OH |
| Active | H-AELAALEAELAALEGWLIELLWIVGKLAALKAKLAALKA-OH |
| Active | H-AELAALEAELAALEGWVQVAQKVRGKLAALKAKLAALKA-OH |
| Active | H-AELAALEAELAPLEGYVSAGSQLWDGKLAALKAKLAALKA-OH |
